Data reported in ChEMBL document CHEMBL5465560, “Selectivity Literature for EUbOPEN Chemogenomic Library” (2024).

How the values were obtained:
[1] = molecular target: Serine/threonine-protein kinase PAK 4 (Homo sapiens, UniProt O96013); experiment: Selectivity interaction (Upstate Kinase Profiler service (Millipore)) EUB0000056c PAK4; conditions: at 1 µM
[2] = molecular target: Mitogen-activated protein kinase kinase kinase kinase 5 (Homo sapiens) (UniProt Q9Y4K4); experiment: Selectivity interaction (KinomeScan (DiscoverX)) EUB0000695a MAP4K5; conditions: at 100 nM
[3] = test system: Epidermal growth factor receptor (Homo sapiens), P00533 [G719S]; experiment: (§1) Selectivity interaction (Ambit KINOMEscan and KiNATiv profiling in Jurkat cells) EUB0000090b EGFR; format: cell-based; conditions: at 1 µM
[4] = test system: Epidermal growth factor receptor (Homo sapiens), P00533 [T790M]; experiment: as §1; format: cell-based; conditions: at 1 µM
[5] = test system: Epidermal growth factor receptor (Homo sapiens), P00533 [UNDEFINED MUTATION]; experiment: as §1; format: cell-based; conditions: at 1 µM
[6] = test system: Leucine-rich repeat serine/threonine-protein kinase 2 (Homo sapiens), Q5S007 [G2019S]; experiment: (§2) Selectivity interaction (KinomeScan (DiscoverX)) EUB0000045b LRRK2
[7] = molecular target: Leucine-rich repeat serine/threonine-protein kinase 2 (Homo sapiens, UniProt Q5S007); experiment: as §2
[8] = molecular target: T1, Serine/threonine-protein kinase LATS2 (Homo sapiens) (UniProt Q9NRM7); experiment: Selectivity interaction (Kinase panel (KiNativ target engagement assay in Jurkat cells)) EUB0001635a LATS2; format: cell-based; conditions: Selectivity number of off-targets 0.0, Selectivity number of targets 233.0, Source Knowledge https://www.sciencedirect.com/science/article/pii/S2451945619300674?via%3Dihub, at 1 µM
T1 sequence (whole entry): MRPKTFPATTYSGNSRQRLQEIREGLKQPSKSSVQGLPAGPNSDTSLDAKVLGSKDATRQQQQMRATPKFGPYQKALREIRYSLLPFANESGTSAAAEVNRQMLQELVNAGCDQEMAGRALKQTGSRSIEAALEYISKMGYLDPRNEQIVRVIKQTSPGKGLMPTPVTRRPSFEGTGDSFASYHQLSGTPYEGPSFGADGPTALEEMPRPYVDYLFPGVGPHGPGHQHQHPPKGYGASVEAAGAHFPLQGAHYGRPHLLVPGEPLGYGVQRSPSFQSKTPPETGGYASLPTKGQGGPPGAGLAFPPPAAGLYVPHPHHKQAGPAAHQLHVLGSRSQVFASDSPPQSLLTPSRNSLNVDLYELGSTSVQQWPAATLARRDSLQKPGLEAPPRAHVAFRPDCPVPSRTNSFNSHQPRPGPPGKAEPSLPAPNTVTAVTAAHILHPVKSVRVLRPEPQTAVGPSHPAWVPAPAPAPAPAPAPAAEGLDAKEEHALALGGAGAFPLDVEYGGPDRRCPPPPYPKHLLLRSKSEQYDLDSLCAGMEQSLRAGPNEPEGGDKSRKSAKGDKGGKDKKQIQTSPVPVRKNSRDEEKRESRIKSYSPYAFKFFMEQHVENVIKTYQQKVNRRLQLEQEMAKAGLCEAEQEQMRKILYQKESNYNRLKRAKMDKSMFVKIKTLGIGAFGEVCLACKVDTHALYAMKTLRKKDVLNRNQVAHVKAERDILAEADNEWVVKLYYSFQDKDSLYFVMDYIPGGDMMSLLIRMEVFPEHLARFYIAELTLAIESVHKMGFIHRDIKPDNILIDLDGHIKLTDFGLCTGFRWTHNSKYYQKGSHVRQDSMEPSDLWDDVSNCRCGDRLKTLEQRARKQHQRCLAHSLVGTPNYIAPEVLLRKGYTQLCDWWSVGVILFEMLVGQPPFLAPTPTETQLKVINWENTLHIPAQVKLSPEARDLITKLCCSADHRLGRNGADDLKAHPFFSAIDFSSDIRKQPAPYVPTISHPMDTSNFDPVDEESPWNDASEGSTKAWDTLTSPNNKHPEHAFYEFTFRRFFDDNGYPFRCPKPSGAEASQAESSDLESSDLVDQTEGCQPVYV

[9] = molecular target: PH-interacting protein (Homo sapiens) (UniProt Q8WWQ0); experiment: Selectivity interaction (Bromodomain panel (DSF asssay)) EUB0000270b PHIP
[10] = Selectivity interaction (PWWP, WD40, and Tudor domain panel (DSLS measurements, literature)) EUB0000270b WDR20
[11] = molecular target: T2, Serine/threonine-protein kinase Nek1 (Homo sapiens) (UniProt Q96PY6); experiment: Selectivity interaction (KinomeScan (DiscoverX)) EUB0000618a NEK1; conditions: at 10 µM
T2 sequence (whole entry): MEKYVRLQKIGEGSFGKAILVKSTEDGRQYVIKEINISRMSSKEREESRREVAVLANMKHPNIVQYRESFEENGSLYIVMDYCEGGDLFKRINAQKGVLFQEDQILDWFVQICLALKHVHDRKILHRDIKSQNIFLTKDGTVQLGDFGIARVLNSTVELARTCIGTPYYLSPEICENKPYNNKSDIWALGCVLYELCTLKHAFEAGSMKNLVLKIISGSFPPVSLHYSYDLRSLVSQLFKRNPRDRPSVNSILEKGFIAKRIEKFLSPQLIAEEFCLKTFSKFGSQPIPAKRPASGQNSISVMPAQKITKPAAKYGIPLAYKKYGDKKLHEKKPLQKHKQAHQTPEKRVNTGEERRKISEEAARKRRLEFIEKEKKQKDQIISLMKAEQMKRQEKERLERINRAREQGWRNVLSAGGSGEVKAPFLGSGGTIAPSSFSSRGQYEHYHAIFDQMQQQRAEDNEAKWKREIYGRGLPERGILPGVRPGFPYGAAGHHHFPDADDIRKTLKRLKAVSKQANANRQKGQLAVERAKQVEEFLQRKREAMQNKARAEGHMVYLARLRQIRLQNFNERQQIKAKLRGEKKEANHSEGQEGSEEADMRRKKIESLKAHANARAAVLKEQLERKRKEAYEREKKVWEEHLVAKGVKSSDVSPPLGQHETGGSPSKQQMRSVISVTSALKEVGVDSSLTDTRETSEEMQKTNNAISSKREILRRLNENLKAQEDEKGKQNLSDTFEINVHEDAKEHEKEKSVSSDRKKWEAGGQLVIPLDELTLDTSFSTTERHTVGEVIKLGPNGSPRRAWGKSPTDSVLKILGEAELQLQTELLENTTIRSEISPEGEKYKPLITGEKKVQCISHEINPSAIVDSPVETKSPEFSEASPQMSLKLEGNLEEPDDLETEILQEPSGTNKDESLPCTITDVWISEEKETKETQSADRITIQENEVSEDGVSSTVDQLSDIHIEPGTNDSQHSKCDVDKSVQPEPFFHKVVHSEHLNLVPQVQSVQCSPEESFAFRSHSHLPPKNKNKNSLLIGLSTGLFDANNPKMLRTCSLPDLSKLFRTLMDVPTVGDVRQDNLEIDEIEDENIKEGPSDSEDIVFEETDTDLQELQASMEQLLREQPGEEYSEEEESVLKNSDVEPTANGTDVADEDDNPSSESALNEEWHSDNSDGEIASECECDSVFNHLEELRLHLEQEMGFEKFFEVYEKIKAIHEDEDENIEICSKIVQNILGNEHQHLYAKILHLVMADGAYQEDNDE

Leucine-rich repeat serine/threonine-protein kinase 2, sequence (Q5S007 whole entry): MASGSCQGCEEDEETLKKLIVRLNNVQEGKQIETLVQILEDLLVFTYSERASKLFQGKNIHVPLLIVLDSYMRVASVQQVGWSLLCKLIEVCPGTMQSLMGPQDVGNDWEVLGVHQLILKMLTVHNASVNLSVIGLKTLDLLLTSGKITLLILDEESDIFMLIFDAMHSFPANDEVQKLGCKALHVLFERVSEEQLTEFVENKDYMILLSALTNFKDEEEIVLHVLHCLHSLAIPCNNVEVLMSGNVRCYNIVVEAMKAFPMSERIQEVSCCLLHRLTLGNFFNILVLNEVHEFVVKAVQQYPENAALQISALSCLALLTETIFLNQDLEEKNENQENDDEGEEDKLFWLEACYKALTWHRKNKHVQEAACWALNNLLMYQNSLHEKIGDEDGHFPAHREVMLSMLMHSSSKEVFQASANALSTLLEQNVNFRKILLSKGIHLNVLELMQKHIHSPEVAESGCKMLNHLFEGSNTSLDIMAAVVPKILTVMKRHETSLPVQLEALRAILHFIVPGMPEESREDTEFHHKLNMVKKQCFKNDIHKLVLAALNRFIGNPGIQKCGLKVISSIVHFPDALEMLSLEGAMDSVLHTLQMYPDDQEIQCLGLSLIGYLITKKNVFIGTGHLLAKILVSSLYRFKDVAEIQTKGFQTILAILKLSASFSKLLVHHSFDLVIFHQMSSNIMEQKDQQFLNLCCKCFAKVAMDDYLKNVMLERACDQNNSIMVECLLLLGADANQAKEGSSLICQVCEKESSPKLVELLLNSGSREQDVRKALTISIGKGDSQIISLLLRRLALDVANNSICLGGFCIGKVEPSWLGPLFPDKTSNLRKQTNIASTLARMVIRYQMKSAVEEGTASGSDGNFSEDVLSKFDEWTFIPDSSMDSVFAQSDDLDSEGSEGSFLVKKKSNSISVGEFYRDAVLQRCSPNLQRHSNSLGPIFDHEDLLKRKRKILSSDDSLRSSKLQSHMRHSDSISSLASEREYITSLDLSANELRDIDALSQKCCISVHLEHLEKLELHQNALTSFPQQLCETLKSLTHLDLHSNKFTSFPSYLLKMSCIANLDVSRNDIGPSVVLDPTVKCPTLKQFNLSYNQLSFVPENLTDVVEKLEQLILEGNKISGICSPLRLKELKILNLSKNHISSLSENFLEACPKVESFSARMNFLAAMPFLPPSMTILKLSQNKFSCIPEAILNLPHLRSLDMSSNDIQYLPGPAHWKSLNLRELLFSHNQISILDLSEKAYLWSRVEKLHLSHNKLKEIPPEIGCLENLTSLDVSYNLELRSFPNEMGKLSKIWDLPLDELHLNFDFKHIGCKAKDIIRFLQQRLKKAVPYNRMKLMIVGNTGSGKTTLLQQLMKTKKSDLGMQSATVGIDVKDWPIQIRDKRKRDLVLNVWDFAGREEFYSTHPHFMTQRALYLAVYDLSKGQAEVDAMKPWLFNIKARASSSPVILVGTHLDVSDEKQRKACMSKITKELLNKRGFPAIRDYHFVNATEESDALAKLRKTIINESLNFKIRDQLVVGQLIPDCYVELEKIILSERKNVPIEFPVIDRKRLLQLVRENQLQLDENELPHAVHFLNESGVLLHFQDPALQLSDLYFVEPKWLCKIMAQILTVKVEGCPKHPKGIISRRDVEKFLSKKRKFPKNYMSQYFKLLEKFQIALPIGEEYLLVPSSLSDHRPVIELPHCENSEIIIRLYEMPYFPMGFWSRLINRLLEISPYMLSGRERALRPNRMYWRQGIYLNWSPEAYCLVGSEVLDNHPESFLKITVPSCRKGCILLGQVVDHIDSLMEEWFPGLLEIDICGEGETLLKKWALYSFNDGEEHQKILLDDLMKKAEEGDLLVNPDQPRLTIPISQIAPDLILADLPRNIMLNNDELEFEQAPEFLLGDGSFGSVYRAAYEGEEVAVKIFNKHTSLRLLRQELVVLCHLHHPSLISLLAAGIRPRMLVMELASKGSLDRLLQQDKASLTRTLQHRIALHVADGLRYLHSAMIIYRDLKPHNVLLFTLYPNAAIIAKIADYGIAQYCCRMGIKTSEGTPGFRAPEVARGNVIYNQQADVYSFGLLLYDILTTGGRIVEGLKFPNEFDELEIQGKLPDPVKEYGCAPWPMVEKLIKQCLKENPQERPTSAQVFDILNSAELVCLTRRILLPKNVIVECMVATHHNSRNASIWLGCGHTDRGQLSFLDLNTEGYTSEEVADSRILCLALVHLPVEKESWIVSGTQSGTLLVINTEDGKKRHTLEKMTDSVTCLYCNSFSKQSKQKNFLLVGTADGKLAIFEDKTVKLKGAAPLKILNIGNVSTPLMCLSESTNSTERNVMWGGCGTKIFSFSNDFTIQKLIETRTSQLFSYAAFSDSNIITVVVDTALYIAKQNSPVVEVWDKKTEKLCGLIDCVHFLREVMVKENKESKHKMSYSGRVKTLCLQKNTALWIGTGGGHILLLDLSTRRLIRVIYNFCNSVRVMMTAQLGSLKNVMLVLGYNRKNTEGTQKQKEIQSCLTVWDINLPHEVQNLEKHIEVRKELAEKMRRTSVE
Leucine-rich repeat serine/threonine-protein kinase 2 (Homo sapiens), Q5S007 [G2019S], sequence (Q5S007 whole entry G2019S): as the sequence (Q5S007 whole entry) above, with G2019S counted along it
Serine/threonine-protein kinase PAK 4, sequence (O96013 whole entry, looked up): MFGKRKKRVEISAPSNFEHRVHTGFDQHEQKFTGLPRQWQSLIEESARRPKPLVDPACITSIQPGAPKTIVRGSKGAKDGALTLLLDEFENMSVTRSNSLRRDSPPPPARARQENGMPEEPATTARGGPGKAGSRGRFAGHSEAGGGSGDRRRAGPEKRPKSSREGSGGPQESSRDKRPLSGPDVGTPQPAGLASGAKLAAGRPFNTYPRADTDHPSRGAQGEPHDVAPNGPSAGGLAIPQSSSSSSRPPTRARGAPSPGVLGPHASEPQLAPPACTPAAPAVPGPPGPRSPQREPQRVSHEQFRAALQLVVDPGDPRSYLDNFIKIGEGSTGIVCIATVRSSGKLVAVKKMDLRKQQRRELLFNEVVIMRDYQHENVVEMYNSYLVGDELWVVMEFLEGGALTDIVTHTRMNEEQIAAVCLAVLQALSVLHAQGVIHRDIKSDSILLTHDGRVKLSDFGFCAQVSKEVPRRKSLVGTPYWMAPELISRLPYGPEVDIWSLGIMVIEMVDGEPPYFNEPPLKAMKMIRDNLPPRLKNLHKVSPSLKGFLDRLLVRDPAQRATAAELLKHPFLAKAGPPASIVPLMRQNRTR
Mitogen-activated protein kinase kinase kinase kinase 5 (Homo sapiens), sequence (Q9Y4K4 whole entry, looked up): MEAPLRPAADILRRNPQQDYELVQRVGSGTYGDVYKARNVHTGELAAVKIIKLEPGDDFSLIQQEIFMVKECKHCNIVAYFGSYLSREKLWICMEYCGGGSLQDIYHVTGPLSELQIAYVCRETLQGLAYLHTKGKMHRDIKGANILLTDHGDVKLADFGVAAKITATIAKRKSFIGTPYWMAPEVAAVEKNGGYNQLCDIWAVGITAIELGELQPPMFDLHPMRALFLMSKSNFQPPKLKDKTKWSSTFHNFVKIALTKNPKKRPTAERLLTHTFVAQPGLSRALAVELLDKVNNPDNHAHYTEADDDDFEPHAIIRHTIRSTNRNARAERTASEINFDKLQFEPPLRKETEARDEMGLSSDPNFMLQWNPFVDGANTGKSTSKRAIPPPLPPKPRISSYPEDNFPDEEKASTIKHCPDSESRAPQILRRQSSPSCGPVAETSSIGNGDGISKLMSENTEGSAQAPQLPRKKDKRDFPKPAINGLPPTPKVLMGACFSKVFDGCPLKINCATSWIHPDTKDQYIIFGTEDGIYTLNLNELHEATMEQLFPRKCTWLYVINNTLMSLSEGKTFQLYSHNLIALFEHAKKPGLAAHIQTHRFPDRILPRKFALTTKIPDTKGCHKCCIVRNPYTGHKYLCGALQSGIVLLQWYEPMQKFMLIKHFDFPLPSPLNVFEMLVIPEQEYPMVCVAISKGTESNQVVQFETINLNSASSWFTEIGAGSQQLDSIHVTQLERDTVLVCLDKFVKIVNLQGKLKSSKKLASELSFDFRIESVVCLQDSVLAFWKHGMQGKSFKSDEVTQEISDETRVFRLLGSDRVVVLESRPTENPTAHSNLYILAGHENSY

Cc1ccc(-c2ccc3c(ccc4sc5c(c43)NC[C@@H](C)NC5=O)n2)cn1
% of inhibition [1]: 3%

Cc1cc(F)c(C(=O)Nc2cccc(-c3nncn3C(C)C)n2)cc1-n1cnc(C2CC2)c1
% of control [2]: 100%

CN(C)C/C=C/C(=O)Nc1ccc(C(=O)N2CCCC(Nc3ncc(Cl)c(-c4c[nH]c5ccccc45)n3)C2)cc1 (stereo not drawn)
% of control [3]: 91% | % of control [4]: 99% | % of control [5]: 70%

C=CC(=O)Nc1cc(-n2c(=O)ccc3cnc4ccc(-c5ccc(NS(C)(=O)=O)cc5)cc4c32)ccc1C
% of control ([6]; at 1 µM): 100% | % of control ([6]; at 10 µM): 62% | % of control ([7]; at 1 µM): 100% | % of control ([7]; at 10 µM): 100%

C=CC(=O)Nc1ccc(C(=O)Nc2[nH]nc3c2CN(C(=O)N[C@H](CN(C)C)c2ccccc2)C3(C)C)cc1
% of engagement [8]: -12.8%

Cc1cc(CN)cc(C)c1-c1ncn(C)c1-c1cncn1C
dTM [9]: -1.36 K | dTagg [10]: 0 K

O[C@H]1CC[C@H](Nc2ncc3nc(Nc4c(F)cc(F)cc4F)n([C@H]4CCOC4)c3n2)CC1
% of control [11]: 97%
